Measurements reported in ChEMBL document CHEMBL1201862, “PubChem BioAssay data set” (2004).
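96-well plates; 48 h exposure; 5 concentrations. Endpoints by linear interpolation between flanking doses. Not reached: highest tested concentration assigned. Abbreviation: GI50, concentration required for 50% inhibition of growth.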 The source made the active and inactive calls. No stated cut-off is given here; in the data, active = GI50 up to about 1.1 µM and inactive = higher.

How the values were obtained:
Experiment in all cases: NCI tumour cell line growth inhibition, 48 h
A549 = test system: A549
CAKI-1 = test system: CAKI-1
CCRF-CEM = test system: CCRF-CEM
EKVX = test system: EKVX
HCT-116 = test system: HCT-116
HOP-92 = test system: HOP-92
HT-29 = test system: HT-29
KM12 = test system: KM12
M14 = test system: M14
MDA-MB-435 = test system: MDA-MB-435
Malme-3M = test system: Malme-3M
NCI-H226 = test system: NCI-H226
NCI-H460 = test system: NCI-H460
NCI/ADR-RES = test system: NCI/ADR-RES
OVCAR-3 = test system: OVCAR-3
OVCAR-8 = test system: OVCAR-8
SNB-75 = test system: SNB-75
TK-10 = test system: TK-10
UO-31 = test system: UO-31
UACC-257 = test system: UACC-257

SMILES	GI50 (A549)	GI50 (CAKI-1)	GI50 (CCRF-CEM)	GI50 (EKVX)	GI50 (HCT-116)	GI50 (HOP-92)	GI50 (HT-29)	GI50 (KM12)	GI50 (M14)	GI50 (MDA-MB-435)	GI50 (Malme-3M)	GI50 (NCI-H226)	GI50 (NCI-H460)	GI50 (NCI/ADR-RES)	GI50 (OVCAR-3)	GI50 (OVCAR-8)	GI50 (SNB-75)	GI50 (TK-10)	GI50 (UO-31)	GI50 (UACC-257)
CC(=O)Oc1ccc2c(c1)c1c(OC(C)=O)c3ccccc3c(OC(C)=O)c1n2Cc1cccc(C)c1	31.3 µM (inactive)	40.3 µM (inactive)	17.1 µM (inactive)	15.8 µM (inactive)	33.2 µM (inactive)	1.5 µM (inactive)	> 100 µM (inactive)	28.4 µM (inactive)	30.3 µM (inactive)	65.6 µM (inactive)	77.6 µM (inactive)	> 100 µM (inactive)	30.3 µM (inactive)	> 100 µM (inactive)	21.4 µM (inactive)	48.6 µM (inactive)	18.5 µM (inactive)	50.8 µM (inactive)	40 µM (inactive)	–
COc1cc2c(cc1OC)C1Cc3ccccc3CN1CCC2 (stereo unspecified)	> 100 µM (inactive)	> 100 µM (inactive)	46.9 µM (inactive)	> 100 µM (inactive)	91.6 µM (inactive)	92.9 µM (inactive)	66.8 µM (inactive)	> 100 µM (inactive)	93.5 µM (inactive)	47.6 µM (inactive)	> 100 µM (inactive)	90.6 µM (inactive)	> 100 µM (inactive)	> 100 µM (inactive)	> 100 µM (inactive)	> 100 µM (inactive)	37.6 µM (inactive)	> 100 µM (inactive)	–	> 100 µM (inactive)
CC(=O)NC1CONC1=O (stereo unspecified)	> 100 µM (inactive)	> 100 µM (inactive)	> 100 µM (inactive)	> 100 µM (inactive)	> 100 µM (inactive)	> 100 µM (inactive)	> 100 µM (inactive)	> 100 µM (inactive)	> 100 µM (inactive)	> 100 µM (inactive)	> 100 µM (inactive)	> 100 µM (inactive)	> 100 µM (inactive)	> 100 µM (inactive)	> 100 µM (inactive)	> 100 µM (inactive)	> 100 µM (inactive)	> 100 µM (inactive)	> 100 µM (inactive)	> 100 µM (inactive)
CC1(C)CC2C(=O)c3ccccc3NC2c2ccccc21 (stereo unspecified)	6.11 µM (inactive)	6.32 µM (inactive)	4.34 µM (inactive)	43.2 µM (inactive)	2.99 µM (inactive)	> 24.6 µM (inactive)	3.48 µM (inactive)	4.3 µM (inactive)	5.28 µM (inactive)	0.326 µM (active)	4.99 µM (inactive)	11.9 µM (inactive)	3.12 µM (inactive)	3.49 µM (inactive)	4.29 µM (inactive)	5.96 µM (inactive)	4.18 µM (inactive)	12 µM (inactive)	6.03 µM (inactive)	40.4 µM (inactive)
COc1cc(C2c3cc4c(cc3OC3(OC)COC(=O)C23)OCO4)cc(OC)c1OC (stereo unspecified)	0.375 µM (active)	0.568 µM (active)	0.305 µM (active)	0.343 µM (active)	0.267 µM (active)	3.22 µM (inactive)	0.274 µM (active)	0.129 µM (active)	0.272 µM (active)	0.0863 µM (active)	0.605 µM (active)	0.649 µM (active)	0.38 µM (active)	0.128 µM (active)	0.282 µM (active)	0.332 µM (active)	0.311 µM (active)	1.19 µM (inactive)	0.675 µM (active)	2.66 µM (inactive)
CC1(C)C(=O)N(O)C(C)(C)N1O	> 10 µM (inactive)	> 10 µM (inactive)	> 10 µM (inactive)	> 10 µM (inactive)	> 10 µM (inactive)	> 10 µM (inactive)	> 10 µM (inactive)	> 10 µM (inactive)	> 10 µM (inactive)	> 10 µM (inactive)	> 10 µM (inactive)	> 10 µM (inactive)	> 10 µM (inactive)	> 10 µM (inactive)	> 10 µM (inactive)	> 10 µM (inactive)	> 10 µM (inactive)	> 10 µM (inactive)	–	> 10 µM (inactive)
Nc1c(Br)cc(-c2cc(Br)c(N)c(Br)c2)cc1Br	> 100 µM (inactive)	> 100 µM (inactive)	> 100 µM (inactive)	> 100 µM (inactive)	> 100 µM (inactive)	> 100 µM (inactive)	> 100 µM (inactive)	> 100 µM (inactive)	> 100 µM (inactive)	> 100 µM (inactive)	> 100 µM (inactive)	> 100 µM (inactive)	> 100 µM (inactive)	> 100 µM (inactive)	> 100 µM (inactive)	> 100 µM (inactive)	59 µM (inactive)	> 100 µM (inactive)	> 100 µM (inactive)	> 100 µM (inactive)
c1cc2ccc3cc4ncccc4c4ccc(c1)c2c34	9.31 µM (inactive)	18.5 µM (inactive)	19.7 µM (inactive)	22.5 µM (inactive)	12 µM (inactive)	17.4 µM (inactive)	23.2 µM (inactive)	10.5 µM (inactive)	71.6 µM (inactive)	40.4 µM (inactive)	70.8 µM (inactive)	17.5 µM (inactive)	5.05 µM (inactive)	31.6 µM (inactive)	82.2 µM (inactive)	6.82 µM (inactive)	19.8 µM (inactive)	22.8 µM (inactive)	5.43 µM (inactive)	56.8 µM (inactive)
CCOP(C)(=O)C(N)Cc1ccc(OC)c(OC)c1 (stereo unspecified)	> 100 µM (inactive)	> 100 µM (inactive)	> 100 µM (inactive)	> 100 µM (inactive)	> 100 µM (inactive)	> 100 µM (inactive)	> 100 µM (inactive)	–	> 100 µM (inactive)	> 100 µM (inactive)	> 100 µM (inactive)	> 100 µM (inactive)	> 100 µM (inactive)	> 100 µM (inactive)	> 100 µM (inactive)	> 100 µM (inactive)	> 100 µM (inactive)	> 100 µM (inactive)	> 100 µM (inactive)	–
O=C(NCc1ccccc1)c1cnc(Cl)cn1	> 100 µM (inactive)	16.2 µM (inactive)	23.1 µM (inactive)	> 100 µM (inactive)	79.8 µM (inactive)	13.7 µM (inactive)	33.2 µM (inactive)	> 100 µM (inactive)	60.8 µM (inactive)	62.7 µM (inactive)	34.3 µM (inactive)	> 100 µM (inactive)	> 100 µM (inactive)	16.6 µM (inactive)	31.2 µM (inactive)	52.4 µM (inactive)	29.7 µM (inactive)	> 100 µM (inactive)	18.1 µM (inactive)	53 µM (inactive)
CNC(=O)Nc1cc2c3c(c1)CCCN3CCC2	> 10 µM (inactive)	> 10 µM (inactive)	> 10 µM (inactive)	> 10 µM (inactive)	> 10 µM (inactive)	> 10 µM (inactive)	> 10 µM (inactive)	> 10 µM (inactive)	> 10 µM (inactive)	> 10 µM (inactive)	> 10 µM (inactive)	> 10 µM (inactive)	> 10 µM (inactive)	> 10 µM (inactive)	> 10 µM (inactive)	> 10 µM (inactive)	> 10 µM (inactive)	> 10 µM (inactive)	–	> 10 µM (inactive)
Cc1ccc(SCC(OCn2cnc3c(N)ncnc32)[C@H](C)F)cc1 (stereo partly specified)	> 100 µM (inactive)	> 100 µM (inactive)	> 100 µM (inactive)	–	> 100 µM (inactive)	54.5 µM (inactive)	> 100 µM (inactive)	> 100 µM (inactive)	> 100 µM (inactive)	> 100 µM (inactive)	> 100 µM (inactive)	> 100 µM (inactive)	> 100 µM (inactive)	73.1 µM (inactive)	> 100 µM (inactive)	> 100 µM (inactive)	> 100 µM (inactive)	> 100 µM (inactive)	> 100 µM (inactive)	> 100 µM (inactive)
CN(C)c1cc2ccccc2oc1=O	> 100 µM (inactive)	> 100 µM (inactive)	> 100 µM (inactive)	> 100 µM (inactive)	> 100 µM (inactive)	> 100 µM (inactive)	> 100 µM (inactive)	> 100 µM (inactive)	> 100 µM (inactive)	> 100 µM (inactive)	> 100 µM (inactive)	> 100 µM (inactive)	> 100 µM (inactive)	> 100 µM (inactive)	> 100 µM (inactive)	> 100 µM (inactive)	> 100 µM (inactive)	> 100 µM (inactive)	> 100 µM (inactive)	> 100 µM (inactive)
COc1cc2c(c(OC)c1OC)-c1ccc(SC)c(=O)cc1[C@@H](OC(C)=O)CC2	< 0.01 µM (active)	< 0.01 µM (active)	< 0.01 µM (active)	–	< 0.01 µM (active)	> 100 µM (inactive)	< 0.01 µM (active)	< 0.01 µM (active)	< 0.01 µM (active)	< 0.01 µM (active)	< 0.01 µM (active)	< 0.01 µM (active)	< 0.01 µM (active)	< 0.01 µM (active)	< 0.01 µM (active)	< 0.01 µM (active)	< 0.0152 µM (active)	21.8 µM (inactive)	< 0.01 µM (active)	< 0.01 µM (active)
C/C(=N\Nc1nc2ccccc2o1)c1cc2ccccc2cn1	0.054 µM (active)	< 0.01 µM (active)	< 0.01 µM (active)	< 0.01 µM (active)	< 0.01 µM (active)	< 0.0208 µM (active)	< 0.01 µM (active)	0.0346 µM (active)	< 0.01 µM (active)	0.202 µM (active)	< 0.01 µM (active)	< 0.0208 µM (active)	0.0311 µM (active)	< 0.01 µM (active)	< 0.01 µM (active)	< 0.01 µM (active)	0.476 µM (active)	–	< 0.0147 µM (active)	< 0.01 µM (active)
